Laboratory results: ChEMBL document CHEMBL1201861, “Genomics of Drug Sensitity in Cancer screening data, Wellcome Trust Sanger Institute”

Assays:
[1] = test system: K052; test: cells; type: functional, cell-based, Homo sapiens; details: Homo sapiens, K052;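 note: Read-out from a cell viability assay, IC50 reflecting suppression of K052 cell growth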
Description: SANGER: Inhibition of human K052 cell growth in a cell viability assay.

[2] = test system: COR-L279; test: SANGER: Inhibition of human COR-L279 cell growth in a cell viability assay.; type: functional, cell-based; details: Homo sapiens, COR-L279
[3] = test system: NCI-H2081; test: cells; type: functional, cell-based, Homo sapiens; details: Homo sapiens, NCI-H2081;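 note: growth inhibition of human NCI-H2081 cells, read out with a cell viability assay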
Description: SANGER: Inhibition of human NCI-H2081 cell growth in a cell viability assay.

[4] = test system: KMS-12-PE; test: cells; type: functional, cell-based, Homo sapiens; details: Homo sapiens, KMS-12-PE;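 note: growth inhibition of human KMS-12-PE cells, measured with a cell viability assay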
Description: SANGER: Inhibition of human KMS-12-PE cell growth in a cell viability assay.

[5] = test system: NCI-H345; test: cells; type: functional, cell-based, Homo sapiens; details: Homo sapiens, NCI-H345;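 note: growth inhibition of NCI-H345 cells measured with a cell viability assay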
Description: SANGER: Inhibition of human NCI-H345 cell growth in a cell viability assay.

[6] = test system: SR; test: cells; type: functional, cell-based, Homo sapiens; details: Homo sapiens, SR
Description: SANGER: Inhibition of human SR cell growth in a cell viability assay.

[7] = test system: MRK-nu-1; test: cells; type: functional, cell-based, Homo sapiens; details: Homo sapiens, MRK-nu-1;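 note: cell viability assay measuring growth suppression of human MRK-nu-1 cells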
Description: SANGER: Inhibition of human MRK-nu-1 cell growth in a cell viability assay.

[8] = test system: SCLC-21H; test: cells; type: functional, cell-based, Homo sapiens; details: Homo sapiens, SCLC-21H;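 note: growth inhibition of cultured human SCLC-21H cells, read out with a cell viability assay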
Description: SANGER: Inhibition of human SCLC-21H cell growth in a cell viability assay.

[9] = test system: LC-1F; test: cells; type: functional, cell-based, Homo sapiens; details: Homo sapiens, LC-1F;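 note: growth inhibition of human LC-1F cells, read out with a cell viability assay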
Description: SANGER: Inhibition of human LC-1F cell growth in a cell viability assay.

[10] = test system: EB-3; test: cells; type: functional, cell-based, Homo sapiens; details: Homo sapiens, EB-3;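 note: human EB-3 cells, growth inhibition read out via a cell viability assay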
Description: SANGER: Inhibition of human EB-3 cell growth in a cell viability assay.

[11] = test system: NB7; test: cells; type: functional, cell-based, Homo sapiens;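 note: growth inhibition of NB7 cells, read out with a cell viability assay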
Description: SANGER: Inhibition of human NB7 cell growth in a cell viability assay.

[12] = test system: IMR-5; test: cells; type: functional, cell-based, Homo sapiens; details: Homo sapiens, IMR-5;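 note: growth inhibition of human IMR-5 cells, read out with a cell viability assay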
Description: SANGER: Inhibition of human IMR-5 cell growth in a cell viability assay.

[13] = test system: TALL-1; test: cells; type: functional, cell-based, Homo sapiens; details: Homo sapiens, TALL-1;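 note: growth inhibition of cultured human TALL-1 cells, read out by a cell viability assay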
Description: SANGER: Inhibition of human TALL-1 cell growth in a cell viability assay.

[14] = test system: RL95-2; test: cells; type: functional, cell-based; details: Homo sapiens;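 note: RL95-2 growth inhibition determined through a cell viability readout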
Description: SANGER: Inhibition of human RL95-2 cell growth in a cell viability assay.

[15] = test system: THP-1; test: cells; type: functional, cell-based, Homo sapiens; details: Homo sapiens, THP-1;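 note: growth inhibition of THP-1 cells, read out via a cell viability assay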
Description: SANGER: Inhibition of human THP-1 cell growth in a cell viability assay.

[16] = test system: NCI-H2227; test: cells; type: functional, cell-based, Homo sapiens; details: Homo sapiens, NCI-H2227;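 note: growth inhibition of the human cell line, read out with a cell viability assay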
Description: SANGER: Inhibition of human NCI-H2227 cell growth in a cell viability assay.

[17] = test system: CAL-62; test: cells; type: functional, cell-based, Homo sapiens; details: cal-62;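 note: growth inhibition of CAL-62 cells, read out with a cell viability assay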
Description: SANGER: Inhibition of human CAL-62 cell growth in a cell viability assay.

[18] = test system: NCI-H358; test: cells; type: functional, cell-based, Homo sapiens; details: nci-h358;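 note: growth inhibition of NCI-H358 human cells, read out with a cell viability assay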
Description: SANGER: Inhibition of human NCI-H358 cell growth in a cell viability assay.

[19] = test system: NCI-H2342; test: cells; type: functional, cell-based, Homo sapiens; details: nci-h2342;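 note: growth inhibition of the cancer cell line, determined with a cell viability assay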
Description: SANGER: Inhibition of human NCI-H2342 cell growth in a cell viability assay.

[20] = test system: 8505C; test: cells; type: functional, cell-based, Homo sapiens; details: 8505c
Description: SANGER: Inhibition of human 8505C cell growth in a cell viability assay.

[21] = test system: LCLC-103H cell line; test: cells; type: functional, cell-based, Homo sapiens; details: lclc-103h
Description: SANGER: Inhibition of human LCLC-103H cell growth in a cell viability assay.

[22] = test system: M14; test: cells; type: functional, cell-based, Homo sapiens; details: m14;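 note: growth inhibition of M14 cells, read out with a cell viability assay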
Description: SANGER: Inhibition of human M14 cell growth in a cell viability assay.

[23] = test system: PC-3; test: cells; type: functional, cell-based, Homo sapiens; details: pc-3;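 note: cell viability assay measuring growth inhibition of PC-3 cells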
Description: SANGER: Inhibition of human PC-3 cell growth in a cell viability assay.

[24] = test system: SK-MEL-30; test: cells; type: functional, cell-based, Homo sapiens; details: sk-mel-30;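 note: growth inhibition of SK-MEL-30 cells, determined with a cell viability assay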
Description: SANGER: Inhibition of human SK-MEL-30 cell growth in a cell viability assay.

[25] = test system: SW1088; test: cells; type: functional, cell-based, Homo sapiens; details: sw1088;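 note: growth inhibition of human SW1088 cells, read out by a cell viability assay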
Description: SANGER: Inhibition of human SW1088 cell growth in a cell viability assay.

[26] = test system: NCI-H1793; test: cells; type: functional, cell-based, Homo sapiens; details: nci-h1793;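 note: cell growth inhibition, read out by a cell viability assay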
Description: SANGER: Inhibition of human NCI-H1793 cell growth in a cell viability assay.

[27] = test system: CAL-51; test: cells; type: functional, cell-based, Homo sapiens; details: cal-51;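 note: human CAL-51 cell line, growth inhibition read out via a cell viability assay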
Description: SANGER: Inhibition of human CAL-51 cell growth in a cell viability assay.

[28] = test system: GP5d; test: cells; type: functional, cell-based, Homo sapiens; details: gp5d;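 note: growth inhibition of human GP5d cells, read out with a cell viability assay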
Description: SANGER: Inhibition of human GP5d cell growth in a cell viability assay.

[29] = test system: HT-3; test: cells; type: functional, cell-based, Homo sapiens; details: ht-3;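 note: growth inhibition measured with a cell viability readout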
Description: SANGER: Inhibition of human HT-3 cell growth in a cell viability assay.

[30] = test system: SNU-387; test: cells; type: functional, cell-based, Homo sapiens; details: snu-387
Description: SANGER: Inhibition of human SNU-387 cell growth in a cell viability assay.

[31] = test system: NCI-H661; test: cells; type: functional, cell-based, Homo sapiens; details: nci-h661;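 note: cell viability assay read-out, IC50 being the concentration that inhibits growth of the cells by half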
Description: SANGER: Inhibition of human NCI-H661 cell growth in a cell viability assay.

[32] = test system: CAL-33; test: cells; type: functional, cell-based, Homo sapiens; details: cal-33;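 note: growth inhibition of CAL-33 cells, read out with a cell viability assay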
Description: SANGER: Inhibition of human CAL-33 cell growth in a cell viability assay.

[33] = test system: UACC-893; test: cells; type: functional, cell-based, Homo sapiens; details: uacc-893
Description: SANGER: Inhibition of human UACC-893 cell growth in a cell viability assay.

[34] = test system: U2OS; test: cells; type: functional, cell-based, Homo sapiens, U-2-OS; details: u-2-os;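 note: growth inhibition of human U-2-OS cells, determined with a cell viability assay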
Description: SANGER: Inhibition of human U-2-OS cell growth in a cell viability assay.

[35] = test system: NCI-H28; test: cells; type: functional, cell-based, Homo sapiens; details: nci-h28;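 note: growth inhibition of human NCI-H28 cells, read out as cell viability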
Description: SANGER: Inhibition of human NCI-H28 cell growth in a cell viability assay.

[36] = test system: SW756; test: cells; type: functional, cell-based, Homo sapiens; details: sw756;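 note: growth inhibition of human SW756 cells, read out with a cell viability assay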
Description: SANGER: Inhibition of human SW756 cell growth in a cell viability assay.

[37] = test system: A204; test: cells; type: functional, cell-based, Homo sapiens; details: a204;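 note: growth inhibition of human A204 cells, read out with a cell viability assay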
Description: SANGER: Inhibition of human A204 cell growth in a cell viability assay.

[38] = test system: SW1417; test: cells; type: functional, cell-based, Homo sapiens; details: sw1417;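 note: growth inhibition of human SW1417 cells, read out with a cell viability assay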
Description: SANGER: Inhibition of human SW1417 cell growth in a cell viability assay.

[39] = test system: HT-29; test: cells; type: functional, cell-based, Homo sapiens; details: ht-29;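 note: growth inhibition of human HT-29 cells, read out by a cell viability assay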
Description: SANGER: Inhibition of human HT-29 cell growth in a cell viability assay.

[40] = test system: EW-22; test: cells; type: functional, cell-based, Homo sapiens; details: ew-22;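 note: growth inhibition of the EW-22 cell line, measured with a cell viability readout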
Description: SANGER: Inhibition of human EW-22 cell growth in a cell viability assay.

[41] = test system: 639-V; test: cells; type: functional, cell-based, Homo sapiens; details: 639-v;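 note: growth inhibition of 639-V cells, read out with a cell viability assay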
Description: SANGER: Inhibition of human 639-V cell growth in a cell viability assay.

[42] = test system: NCI-H1651; test: cells; type: functional, cell-based, Homo sapiens; details: nci-h1651;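 note: Read-out is a cell viability assay, with IC50 expressing inhibition of NCI-H1651 cell growth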
Description: SANGER: Inhibition of human NCI-H1651 cell growth in a cell viability assay.

[43] = test system: BHY; test: cells; type: functional, cell-based, Homo sapiens; details: bhy;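 note: cell growth inhibition read out by a viability assay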
Description: SANGER: Inhibition of human BHY cell growth in a cell viability assay.

[44] = test system: SJRH30; test: cells; type: functional, cell-based, Homo sapiens; details: sjrh30;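 note: growth inhibition of human SJRH30 cells, read out with a cell viability assay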
Description: SANGER: Inhibition of human SJRH30 cell growth in a cell viability assay.

[45] = test system: SW13; test: cells; type: functional, cell-based, Homo sapiens; details: sw13;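 note: IC50 is inhibition of SW13 cell growth, read out with a cell viability assay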
Description: SANGER: Inhibition of human SW13 cell growth in a cell viability assay.

[46] = test system: BT-549; test: cells; type: functional, cell-based, Homo sapiens; details: bt-549
Description: SANGER: Inhibition of human BT-549 cell growth in a cell viability assay.

[47] = test system: COR-L105; test: cells; type: functional, cell-based, Homo sapiens; details: cor-l105
Description: SANGER: Inhibition of human COR-L105 cell growth in a cell viability assay.

[48] = test system: Ca9-22; test: cells; type: functional, cell-based, Homo sapiens; details: ca9-22;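 note: growth inhibition of Ca9-22 cells, read out with a cell viability assay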
Description: SANGER: Inhibition of human Ca9-22 cell growth in a cell viability assay.

[49] = test system: CWR22R; test: cells; type: functional, cell-based, Homo sapiens; details: cwr22r;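 note: growth inhibition of 22Rv1 cells, read out with a cell viability assay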
Description: SANGER: Inhibition of human 22RV1 cell growth in a cell viability assay.

Compound: COc1cc(-c2nn([C@H]3CC[C@H](N4CCN(C(C)=O)CC4)CC3)c3ncnc(N)c23)ccc1NC(=O)c1cc2ccccc2n1C
- IC50 [1]: > 5120 nM
- IC50 [2]: > 5120 nM
- IC50 [3]: > 5120 nM
- IC50 [4]: > 5120 nM
- IC50 [5]: > 5120 nM
- IC50 [6]: > 5120 nM
- IC50 [7]: 2950 nM
- IC50 [8]: > 5120 nM
- IC50 [9]: > 5120 nM
- IC50 [10]: > 5120 nM
- IC50 ([11]; Homo sapiens, NB7): > 5120 nM
- IC50 [12]: > 5120 nM
- IC50 [13]: > 5120 nM
- IC50 [14]: 379 nM
- IC50 [15]: > 5120 nM

Compound: OCCCNc1cc(-c2ccnc(Nc3cccc(Cl)c3)n2)ccn1
- IC50 [1]: > 256 nM
- IC50 [2]: 171 nM
- IC50 [3]: > 256 nM
- IC50 [4]: > 256 nM
- IC50 [5]: > 256 nM
- IC50 [6]: 25.5 nM
- IC50 [7]: 37.3 nM
- IC50 [8]: > 256 nM
- IC50 [9]: 117 nM
- IC50 [10]: 64.8 nM
- IC50 ([11]; Homo sapiens, NB7): > 256 nM
- IC50 [12]: 124 nM
- IC50 [13]: 94.1 nM
- IC50 [14]: 177 nM
- IC50 [15]: > 256 nM

Compound: Cc1ccc(-c2c(C(=O)CCl)n(CCCO)c3ncnc(N)c23)cc1
- IC50 [1]: > 4000 nM
- IC50 [2]: > 4000 nM
- IC50 [3]: > 4000 nM
- IC50 [4]: > 4000 nM
- IC50 [5]: > 4000 nM
- IC50 [6]: > 4000 nM
- IC50 [7]: 2520 nM
- IC50 [8]: > 4000 nM
- IC50 [9]: > 4000 nM
- IC50 [10]: > 4000 nM
- IC50 ([11]; Homo sapiens, NB7): > 4000 nM
- IC50 [12]: > 4000 nM
- IC50 [13]: > 4000 nM
- IC50 [14]: > 4000 nM
- IC50 [15]: > 4000 nM

Compound: C#Cc1cccc(Nc2ncnc3cc(OCCOC)c(OCCOC)cc23)c1 [ERLOTINIB]
- IC50 [3]: > 2000 nM
- IC50 [4]: > 2000 nM
- IC50 [5]: > 2000 nM
- IC50 [6]: > 2000 nM
- IC50 [7]: > 2000 nM
- IC50 [9]: 606 nM
- IC50 [10]: > 2000 nM
- IC50 ([11]; Homo sapiens, NB7): > 2000 nM
- IC50 [12]: > 2000 nM
- IC50 [16]: > 2000 nM
- IC50 [14]: > 2000 nM
- IC50 [15]: > 2000 nM

Compound: COc1cc2ncn(-c3cc(OCc4ccccc4C(F)(F)F)c(C(N)=O)s3)c2cc1OC [GW843682X]
- IC50 [1]: 35.4 nM
- IC50 [2]: 99.2 nM
- IC50 [3]: > 256 nM
- IC50 [4]: > 256 nM
- IC50 [5]: > 256 nM
- IC50 [6]: 14.5 nM
- IC50 [7]: 30.1 nM
- IC50 [8]: 90.2 nM
- IC50 [9]: > 256 nM
- IC50 [10]: > 256 nM
- IC50 ([11]; Homo sapiens, NB7): > 256 nM
- IC50 [12]: 35.4 nM
- IC50 [13]: 13 nM
- IC50 [14]: 11.3 nM
- IC50 [15]: > 256 nM

Compound: CC(=O)O[C@H]1C(=O)[C@@]2(C)[C@H]([C@H](OC(=O)c3ccccc3)[C@]3(O)C[C@H](OC(=O)[C@H](O)[C@@H](NC(=O)c4ccccc4)c4ccccc4)C(C)=C1C3(C)C)[C@]1(OC(C)=O)CO[C@@H]1C[C@@H]2O [PACLITAXEL]
- IC50 [1]: 32.5 nM
- IC50 [2]: 9.99 nM
- IC50 [3]: > 102 nM
- IC50 [4]: > 102 nM
- IC50 [5]: > 102 nM
- IC50 [6]: 10.3 nM
- IC50 [7]: 2.99 nM
- IC50 [8]: 58.8 nM
- IC50 [9]: > 102 nM
- IC50 [10]: > 102 nM
- IC50 ([11]; Homo sapiens, NB7): > 102 nM
- IC50 [12]: 4.5 nM
- IC50 [13]: 50.4 nM
- IC50 [14]: 0.668 nM
- IC50 [15]: > 102 nM

Compound: N[C@@H](CSC(c1ccccc1)(c1ccccc1)c1ccccc1)C(=O)O [S-TRITYL-L-CYSTEINE]
- IC50 [1]: 971 nM
- IC50 [2]: 2860 nM
- IC50 [3]: > 5120 nM
- IC50 [4]: > 5120 nM
- IC50 [5]: > 5120 nM
- IC50 [6]: 718 nM
- IC50 [7]: 760 nM
- IC50 [8]: 2830 nM
- IC50 [9]: 3490 nM
- IC50 [10]: > 5120 nM
- IC50 ([11]; Homo sapiens, NB7): > 5120 nM
- IC50 [12]: 1270 nM
- IC50 [13]: 2530 nM
- IC50 [14]: 605 nM
- IC50 [15]: > 5120 nM

Compound: CCN(CC)CCNC(=O)c1c(C)[nH]c(/C=C2\C(=O)Nc3ccc(F)cc32)c1C [SUNITINIB]
- IC50 [1]: 2400 nM
- IC50 [2]: > 8000 nM
- IC50 [3]: > 8000 nM
- IC50 [4]: > 8000 nM
- IC50 [5]: > 8000 nM
- IC50 [6]: 1550 nM
- IC50 [7]: > 8000 nM
- IC50 [8]: > 8000 nM
- IC50 [9]: > 8000 nM
- IC50 [10]: > 8000 nM
- IC50 ([11]; Homo sapiens, NB7): > 8000 nM
- IC50 [12]: 7550 nM
- IC50 [13]: > 8000 nM
- IC50 [14]: 2110 nM
- IC50 [15]: > 8000 nM

Compound: CISPLATIN
- IC50 [17]: 301000 nM
- IC50 [18]: 195000 nM
- IC50 [19]: 53800 nM
- IC50 [20]: 34600 nM
- IC50 [21]: 28200 nM
- IC50 [22]: 2790 nM
- IC50 [23]: 96700 nM
- IC50 [24]: 480000 nM
- IC50 [25]: 9700 nM
- IC50 [26]: 19100 nM
- IC50 [27]: 16400 nM
- IC50 [28]: 24200 nM
- IC50 [29]: 5040 nM
- IC50 [30]: 26100 nM
- IC50 [31]: 13600 nM
- IC50 [32]: 41300 nM
- IC50 [33]: 26100 nM
- IC50 [34]: 13400 nM
- IC50 [35]: 117000 nM
- IC50 [36]: 9260 nM
- IC50 [37]: 64400 nM
- IC50 [38]: 194000 nM
- IC50 [39]: 610000 nM
- IC50 [40]: 2080 nM
- IC50 [41]: 5890 nM
- IC50 [42]: 7060 nM
- IC50 [43]: 49300 nM
- IC50 ([11]; nb7): 15400 nM
- IC50 [44]: 98300 nM
- IC50 [45]: 14300 nM
- IC50 [46]: 14600 nM
- IC50 [47]: 22700 nM
- IC50 [48]: 10400 nM
- IC50 [49]: 25300 nM
